Patent publication US20080051438A1, “Preventive/Therapeutic Compositions Useful for Treating Cardiovascular Diseases” (priority 2006, published 2008)
“And” between values parts separate entries of the source, which are not always exact repeats. Identical values can stand only once.

Tested on: hypertensive patients
Experiment: Special investigation of combined use of cilnidipine and ARB: occurrence of side-effects (safety analysis)
Assay type: in vivo, human
Conditions: for side-effect number of cases / side-effect number of examples: cilnidipine and ARB; for side-effect occurence rate (%): combined administration of cilnidipine and ARB
Method: A special investigation was conducted in various medical centers, compiled, and analyzed to evaluate the safety and availability of the combined use of cilnidipine and at least one angiotensin II receptor blocker.
The investigation was conducted mainly in the departments of internal medicine/cardiovascular diseases of various medical institutions. The target of the estimated collected cases was about 3000 cases.
The subjects of the investigation were hypertensive patients which were adapted to cilnidipine. Combined administration of cilnidipine and ARB was started for the treatment of hypertension in these patients.
A prospective continuous investigation method was conducted. Such a method is continuously conducted with the registered cases with the combined administration of cilnidipine (Atelec®) and ARB, until the number of cases reaches the contracted cases for each center.
Regarding the administration method of cilnidipine, 5 to 10 mg of cilnidipine was orally administered after breakfast once a day. Meanwhile, the amount may increase or decrease depending on patient's age, symptoms, or the like. When the effect is insufficient, the amount can be increased to 20 mg once a day. The dosing period of cilnidipine was set to 12 weeks in principle.
The following items were tracked during the investigation: patient's background (sex), existence or nonexistence of previous therapeutic agents and the content thereof, targeted blood pressure (systolic BP/diastolic BP), the conditions of administration of cilnidipine and ARB, antihypertensives used in combination (those other than cilnidipine or ARB), clinical course (systolic BP/diastolic BP/heart rate), and occurrence of side-effects. As for the availability of the combined administration, in the 12th week after starting the combined administration, the doctor in attendance judged the degree of the blood pressure controls on a three-point scale of “well-controlled”, “nearly well-controlled” and “poorly-controlled”, referring to the changes in the systolic and diastolic BP. As for the safety and availability analysis for each patient background, Fisher's exact probability test or the X^2 test was used. As for the blood pressure and heart rate, the average value and the standard deviation were calculated for the subjects before the combined administration (within 4 weeks before starting the combined administration), and data after starting the combined administration were determined on each observation day, and analysis was conducted by using a paired t-test. The test was conducted as the two-sided test and less than 5% of the risk rate was regarded as significant. Furthermore, side-effects were compiled based on the naming of preferred terms (PT) of MedDRA/J ver 8.0.
The ratios of the cases wherein side-effects occurred were compared and examined between the sexes in the 2920 cases of the safety analysis (Table 5). […] The ratio thereof in a female group was 3.2% and that in a male group was 1.8%. […] The side-effects observed were mainly subjective symptoms such as headache, palpitation, and free-floating dizziness. Meanwhile, the ratio of the cases wherein the side-effects of these subjective symptoms occurred was low, and it is not a serious side-effect caused by the combined administration.

## COCCOC(=O)C1=C(C)NC(C)=C(C(=O)OC/C=C/c2ccccc2)C1c1cccc([N+](=O)[O-])c1 (racemic) [cilnidipine, 2-methoxyethyl-3-phenyl-2(E)-propenyl(±)-1,4-dihydro-2,6-dimethyl-4-(3-nitrophenyl)-3,5-pyridinedicarboxylate]
Cases on ARB alone to which cilnidipine was additionally administered
  ratio of the cases wherein side-effects occurred: low
Female group, 1,481 cases
  side-effect number of cases: 56
  side-effect number of examples: 47
  side-effect occurence rate (%): 3.2% and 3.17%
Male group, 1,416 cases
  side-effect number of cases: 32
  side-effect number of examples: 26
  side-effect occurence rate (%): 1.8% and 1.84%
Sex unknown, 23 cases
  side-effect number of cases: 0
  side-effect number of examples: 0
  side-effect occurence rate (%): 0%
